# From US10375956B2, “Herbicidally active 2-(substituted-phenyl)-cyclopentane-1,3-dione compounds and derivatives thereof” (Syngenta Limited, priority 2013, dated 2019)
# How the values were obtained:
# Format in all cases: in vivo
# [1] = tested on: Amaranthus retroflexus (AMARE); test: Test 1 glasshouse assay, post-emergence herbicidal activity; details: 312 h, post-emergence (Example 1B Table 1), after 13 days, read-out: Percentage phytotoxicity AMARE
# Procedure, shortened: (§1)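 Plants sprayed post-emergence after 8 days' growth with active ingredient in acetone/water (50:50) plus 0.5% Tween 20; glasshouse at 24/16° C day/night, 14 h light, 65% humidity. Visual percentage phytotoxicity scored 13 days later (100% = total damage, 0% = none).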
# [2] = tested on: Setaria faberi (SETFA); test: as above; details: 312 h, post-emergence (Example 1B Table 1), after 13 days, read-out: Percentage phytotoxicity SETFA
# Procedure, shortened: as §1
# [3] = tested on: Zea mays (ZEAMX, corn/maize); test: as above; details: 312 h, post-emergence (Example 1B Table 1), after 13 days, read-out: Percentage phytotoxicity ZEAMX
# Procedure, shortened: as §1
# [4] = tested on: Alopecurus myosuroides (ALOMY); test: Test 2 glasshouse assay (IF50 formulation, X-77), post-emergence herbicidal activity; details: 360 h, 15 DAA, visual score, read-out: Post-emergence herbicidal activity (percentage phytotoxicity) ALOMY; for pest or weed control at 30 g/ha: application rate 30 g/ha; for pest or weed control at 250 g/ha: application rate 250 g/ha; for pest or weed control at 125 g/ha: application rate 125 g/ha
# Protocol: (§2) Seeds of a variety of monocotyledonous and dicotyledonous test plants are sown in standard soil in pots. The plants are cultivated for one day (for pre-emergence) or for about 12 days (for post-emergence) under controlled conditions in a glasshouse (warm climate species at 24/18° C., cool climate species at 20/16° C., both at day/night; 16 hours light; 65% humidity).
# (§3) An “instant formulation”, known as the “IF50”, containing 50 g/liter (i.e. 5% w/v) of the “technical” (i.e. unformulated) active ingredient is prepared by dissolving the active ingredient in a mixture of organic solvents and emulsifier, details of which are provided in the Table below. This IF50 is then mixed with a small, variable amount of acetone to aid dissolution, before addition of a 0.2% v/v aqueous solution of the adjuvant X-77 (which is a mixture of alkyl aryl polyoxyethylene glycols and free fatty acids in isopropanol, CAS Registry number 11097-66-8), as the aqueous diluent, to form an aqueous spray solution which contains a predetermined concentration of the active ingredient (which varies depending on the application rate of the active ingredient to the plants) and 0.2% v/v of the adjuvant X-77. This aqueous spray solution is then sprayed onto the plants, after one day's cultivation (for pre-emergence), or after about 12 days' cultivation (range=10-13 days) (for post-emergence).
# (§4) The test plants are then grown on, in a glasshouse (greenhouse) under controlled conditions (warm climate species at 24/18° C., cool climate species at 20/16° C., both at day/night; 16 hours light; 65% humidity) and are watered twice daily. 15 days after application of the test herbicide (15DAA) (for post-emergence), and 20 days after application of the test herbicide (20DAA) (for pre-emergence), the test plants are evaluated visually, and an assessed percentage phytotoxicity score is given for each herbicidal application on each plant species (with 100%=total damage to plant; 0%=no damage to plant).
# (§5) Cool climate (“cool season”) grassy monocotyledonous weeds: Alopecurus myosuroides (ALOMY), Avena fatua (AVEFA), Lolium perenne (LOLPE).
# [5] = tested on: Avena fatua (AVEFA); test: as above; details: 360 h, 15 DAA, visual score, read-out: Post-emergence herbicidal activity (percentage phytotoxicity) AVEFA; for pest or weed control at 30 g/ha: application rate 30 g/ha; for pest or weed control at 250 g/ha: application rate 250 g/ha; for pest or weed control at 125 g/ha: application rate 125 g/ha
# Protocol: as §2, §3, §4, §5
# [6] = tested on: Lolium perenne (LOLPE); test: as above; details: 360 h, 15 DAA, visual score, read-out: Post-emergence herbicidal activity (percentage phytotoxicity) LOLPE; for pest or weed control at 30 g/ha: application rate 30 g/ha; for pest or weed control at 250 g/ha: application rate 250 g/ha; for pest or weed control at 125 g/ha: application rate 125 g/ha
# Protocol: as §2, §3, §4, §5
# [7] = tested on: Panicum miliaceum (PANMI); test: as above; details: 360 h, 15 DAA, visual score, read-out: Post-emergence herbicidal activity (percentage phytotoxicity) PANMI; for pest or weed control at 30 g/ha: application rate 30 g/ha; for pest or weed control at 250 g/ha: application rate 250 g/ha; for pest or weed control at 125 g/ha: application rate 125 g/ha
# Procedure, shortened: (§6)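 Read-out: visual % phytotoxicity at 20 DAA (pre) or 15 DAA (post), 0% = no damage, 100% = total damage. Soil-sown test plants sprayed 1 day (pre) or about 12 days (post) after sowing with IF50 in 0.2% v/v X-77 water; glasshouse 24/18 °C, 16 h light, 65% RH.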
# [8] = tested on: Echinochloa crus-galli (ECHCG); test: as above; details: 360 h, 15 DAA, visual score, read-out: Post-emergence herbicidal activity (percentage phytotoxicity) ECHCG; for pest or weed control at 30 g/ha: application rate 30 g/ha; for pest or weed control at 250 g/ha: application rate 250 g/ha; for pest or weed control at 125 g/ha: application rate 125 g/ha
# Procedure, shortened: as §6
# [9] = tested on: Glycine max (GLXMA, soybean); test: as above; details: 360 h, 15 DAA, visual score, read-out: Post-emergence herbicidal activity (percentage phytotoxicity) GLXMA; for plant injury at 30 g/ha: application rate 30 g/ha; for plant injury at 250 g/ha: application rate 250 g/ha; for plant injury at 125 g/ha: application rate 125 g/ha
# Protocol: as §2, §3, §4
# (§7) Cool climate crop plants: Triticum aestivum (TRZAW, winter wheat), Brassica napus (BRSNN, rape, also called oilseed rape or rapeseed), Beta vulgaris (BEAVA, sugarbeet). Warm climate crop plants: Glycine max (GLXMA, soybean).
# [10] = tested on: Beta vulgaris (BEAVA, sugarbeet); test: as above; details: 360 h, 15 DAA, visual score, read-out: Post-emergence herbicidal activity (percentage phytotoxicity) BEAVA; for plant injury at 30 g/ha: application rate 30 g/ha; for plant injury at 250 g/ha: application rate 250 g/ha; for plant injury at 125 g/ha: application rate 125 g/ha
# Protocol: as §2, §3, §4, §7
# [11] = tested on: Brassica napus (BRSNN, rape); test: as above; details: 360 h, 15 DAA, visual score, read-out: Post-emergence herbicidal activity (percentage phytotoxicity) BRSNN; for plant injury at 30 g/ha: application rate 30 g/ha; for plant injury at 250 g/ha: application rate 250 g/ha; for plant injury at 125 g/ha: application rate 125 g/ha
# Protocol: as §2, §3, §4, §7
# [12] = tested on: Triticum aestivum (TRZAW, winter wheat); test: as above; details: 360 h, 15 DAA, visual score, read-out: Post-emergence herbicidal activity (percentage phytotoxicity) TRZAW; for plant injury at 30 g/ha: application rate 30 g/ha; for plant injury at 250 g/ha: application rate 250 g/ha; for plant injury at 125 g/ha: application rate 125 g/ha
# Protocol: as §2, §3, §4, §7
Structure (SMILES),pest or weed control at 62.5 g/ha [1] [%],pest or weed control at 250 g/ha [1] [%],pest or weed control at 62.5 g/ha [2] [%],pest or weed control at 250 g/ha [2] [%],pest or weed control at 250 g/ha [3] [%],pest or weed control at 30 g/ha [4] [%],pest or weed control at 250 g/ha [4] [%],pest or weed control at 30 g/ha [5] [%],pest or weed control at 250 g/ha [5] [%],pest or weed control at 30 g/ha [6] [%],pest or weed control at 250 g/ha [6] [%],pest or weed control at 30 g/ha [7] [%],pest or weed control at 250 g/ha [7] [%],pest or weed control at 30 g/ha [8] [%],pest or weed control at 250 g/ha [8] [%],plant injury at 30 g/ha [9] [%],plant injury at 250 g/ha [9] [%],plant injury at 30 g/ha [10] [%],plant injury at 250 g/ha [10] [%],plant injury at 30 g/ha [11] [%],further results
C#CCC1CC(=O)C(c2c(C)cc(-c3ccc(Cl)cn3)cc2C)C1=O (stereo not shown) [Compound A2],70,70,100,100,100,20,100,60,90,30,90,100,100,100,100,10,20,40,50,50,pest or weed control at 62.5 g/ha [3]: 100%; plant injury at 250 g/ha [11]: 80%; plant injury at 30 g/ha [12]: 70%; plant injury at 250 g/ha [12]: 90%
C#CCC1CC(=O)C(c2c(C)cc(-c3ncc(Cl)cc3F)cc2C)C1=O (stereo not shown) [Compound A3],60,90,100,100,100,80,100,40,100,30,90,100,100,100,100,20,70,40,70,40,pest or weed control at 62.5 g/ha [3]: 100%; plant injury at 250 g/ha [11]: 70%; plant injury at 30 g/ha [12]: 80%; plant injury at 250 g/ha [12]: 90%
"C#CCC1CC(=O)C(c2c(F)cc(-c3ccc(Cl)cc3)cc2Cl)C1=O (stereo not shown) [Compound A6, 2-[2-chloro-4-(4-chlorophenyl)-6-fluorophenyl]-4-prop-2-ynylcyclopentane-1,3-dione]",,70,,100,100,,100,,80,,70,,100,,100,,10,,40,,pest or weed control at 30 g/ha ([1]; 30 g/ha): 60%; pest or weed control at 30 g/ha ([2]; 30 g/ha): 100%; pest or weed control at 30 g/ha ([3]; 30 g/ha): 100%; pest or weed control at 125 g/ha [4]: 80%; pest or weed control at 125 g/ha [5]: 70%; pest or weed control at 125 g/ha [6]: 30%; pest or weed control at 125 g/ha [7]: 100%; pest or weed control at 125 g/ha [8]: 100%; plant injury at 125 g/ha [9]: 10%; plant injury at 125 g/ha [10]: 20%; plant injury at 125 g/ha [11]: 20%; plant injury at 250 g/ha [11]: 40%; plant injury at 125 g/ha [12]: 80%; plant injury at 250 g/ha [12]: 90%
C#CCC1CC(OC(C)=O)=C(c2c(C)cc(-c3ccc(F)cc3)cc2C)C1=O (stereo not shown) [Compound A45],20,80,90,100,,70,,70,,80,,100,,100,,0,,70,,50,pest or weed control at 125 g/ha [4]: 90%; pest or weed control at 125 g/ha [5]: 90%; pest or weed control at 125 g/ha [6]: 100%; pest or weed control at 125 g/ha [7]: 100%; pest or weed control at 125 g/ha [8]: 100%; plant injury at 125 g/ha [9]: 10%; plant injury at 125 g/ha [10]: 70%; plant injury at 125 g/ha [11]: 80%; plant injury at 30 g/ha [12]: 80%; plant injury at 125 g/ha [12]: 80%
